According to patent US20210392889A1, “COMPOSITIONS COMPRISING PYRIDINE CARBOXYLATE HERBICIDES WITH PDS INHIBITOR HERBICIDES” (Corteva Agriscience LLC, priority 2018, published 2021):

Experiments:
Test in all cases: Greenhouse postemergence herbicidal effect, visual injury after 20-22 d
Assay type in all cases: in vivo
[1] = system: Italian ryegrass (LOLMU, Lolium multiflorum.); details: Table 4
Excerpt: (§1) Seeds of the desired test plant species were planted in a 90:10% v/v (volume/volume) mixture of PRO-MIX® BX (Premier Tech Horticulture, Quakertown, Pa., USA) and PROFILE® GREENS GRADE™ (Profile Products LLC, Buffalo Grove, Ill., USA) planting mixture, which typically has a pH of 5.2 to 6.2 and an organic matter content of at least 50 percent, in plastic pots with a surface area of 103.2 square centimeters (cm^2). In some aspects, to ensure good germination and healthy plants, a fungicide treatment and/or other chemical or physical treatment was applied. The plants were grown for 7-36 days (d) in a greenhouse with an approximate 14-hour (h) photoperiod which was maintained at about 23° C. during the day and 22° C. during the night. Nutrients and water were added on a regular basis and supplemental lighting was provided with overhead metal halide 1000-Watt lamps as necessary. The plants were employed for testing when they reached the second or third true leaf stage.
(§2) Emulsifiable concentrates of each of each pyridine carboxylate herbicide (Compound A or Compound B) were prepared at 100 grams acid equivalent per liter (g ae/L). The emulsifiable concentrates also included a safener, cloquintocet-mexyl, at 120 grams active ingredient per liter (g ai/L). An aliquot of each emulsifiable concentrate was placed in a 25 mL glass vial and diluted with an aqueous mixture of 1.25% (v/v) ACTIROB® B esterified rapeseed oil (Bayer Crop Science, Research Triangle Park, N.C., USA) or MSO® Concentrate with LECI-TECH® methylated soybean oil (Loveland Products, Loveland, Colo., USA) to obtain concentrated stock solutions at the highest application rate for each herbicide, based upon a 12 milliliter (mL) application volume at a rate of 187 liters per hectare (L/ha). The concentrated stock solutions were further diluted with an aqueous mixture of 1.25% v/v ACTIROB® B or MSO® Concentrate with LECI-TECH® to obtain stock solutions at reduced application rates for each herbicide. Spray solutions of the herbicide combinations (Compound A or Compound B plus PDS inhibitor herbicide) were prepared by adding weighed amounts or aliquots of the PDS inhibitor herbicide to the stock solutions of Compound A or Compound B to form 12-mL spray solutions in two- or three-way combinations.
(§3) The spray solutions were applied to the plant material with an overhead Mandel track sprayer equipped with 8002E nozzles calibrated to deliver 187 L/ha over an application area of 0.503 square meters (m^2) at a spray height of 18 inches ([…] centimeters (cm)) above the average plant canopy. Control plants were sprayed in the same manner with the solvent blank. All pyridine carboxylate herbicide (component a) application rates are given as “g ae/ha” and all PDS inhibitor herbicide (component b) application rates are given as “g ai/ha.”
(§4) The treated plants and control plants were placed in a greenhouse as described above and watered by sub-irrigation to prevent wash-off of the test compounds. After 20-22 d, the condition of the test plants as compared with that of the control plants was determined visually and scored on a scale of 0 to 100 percent where 0 corresponds to no injury and 100 corresponds to complete kill.

[2] = system: Russian thistle (SASKR, Salsola kali); details: for visual injury: Table 1
Excerpt: as §1, §2, §3, §4

[3] = system: broad-leaf dock (RUMOB, Rumex obtusifolius); details: Table 4
Excerpt: as §1, §2, §3, §4

[4] = system: common rice (ORYSA, Oryza sativa); details: Table 4
Excerpt: as §1, §2, §3, §4

[5] = system: common sunflower (HELAN, Helianthus annuus)
Excerpt: as §1, §2, §3, §4

[6] = system: pigweed (AMARE, Amaranthus retroflexus); details: for visual injury: Table 1
Excerpt: as §1, §2, §3, §4

[7] = system: spring rape (BRSNN, Brassica napus)
Excerpt: as §1, §2, §3, §4

[8] = system: wild buckwheat (POLCO, Polygonum convolvulus); details: for visual injury: Table 1
Excerpt: as §1, §2, §3, §4

[9] = system: wild mustard (SINAR, Sinapis arvensis); details: for visual injury: Table 1
Excerpt: as §1, §2, §3, §4

[10] = system: wild pansy (VIOTR, Viola tricolor)
Excerpt: as §1, §2, §3, §4

[11] = system: winter rape (BRSNW, Brassica napus); details: for visual injury: Table 1
Excerpt: as §1, §2, §3, §4

N#CCOC(=O)c1nc(-c2ccc3cc[nH]c3c2F)c(F)c(N)c1Cl [Compound A, cyanomethyl 4-amino-3-chloro-5-fluoro-6-(7-fluoro-1H-indol-6-yl)pyridine-2-carboxylate]
visual injury Obs ([1]; 7.5 g/ha): 0%
visual injury Obs ([1]; 10 g/ha): 0%
visual injury ([2]; 7.5 g/ha): 60%
visual injury Obs ([2]; 7.5 g/ha, Table 2): 45%
visual injury Obs ([2]; 7.5 g/ha, Table 3): 38%
visual injury Obs ([2]; 7.5 g/ha, Table 8): 55%
visual injury ([2]; 10 g/ha): 63%
visual injury Obs ([2]; 10 g/ha, Table 2): 60%
visual injury Obs ([2]; 10 g/ha, Table 3): 63%
visual injury Obs ([2]; 10 g/ha, Table 8): 58%
visual injury Obs ([2]; 15 g/ha, Table 8): 65%
visual injury Obs ([3]; 7.5 g/ha): 8%
visual injury Obs ([3]; 10 g/ha): 10%
visual injury Obs ([4]; 7.5 g/ha): 13%
visual injury Obs ([4]; 10 g/ha): 10%
visual injury Obs ([5]; 7.5 g/ha, Table 5): 83%
visual injury Obs ([5]; 7.5 g/ha, Table 6): 83%
visual injury Obs ([5]; 10 g/ha, Table 5): 88%
visual injury Obs ([5]; 10 g/ha, Table 6): 88%
visual injury ([6]; 7.5 g/ha): 78%
visual injury Obs ([6]; 7.5 g/ha, Table 3): 70%
visual injury Obs ([6]; 7.5 g/ha, Table 5): 80%
visual injury Obs ([6]; 7.5 g/ha, Table 6): 80%
visual injury Obs ([6]; 7.5 g/ha, Table 7): 70%
visual injury Obs ([6]; 7.5 g/ha, Table 8): 78%
visual injury ([6]; 10 g/ha): 73%
visual injury Obs ([6]; 10 g/ha, Table 3): 98%
visual injury Obs ([6]; 10 g/ha, Table 5): 85%
visual injury Obs ([6]; 10 g/ha, Table 6): 85%
visual injury Obs ([6]; 10 g/ha, Table 7): 90%
visual injury Obs ([6]; 10 g/ha, Table 8): 78%
visual injury Obs ([6]; 15 g/ha, Table 8): 83%
visual injury Obs ([7]; 7.5 g/ha, Table 2): 55%
visual injury Obs ([7]; 7.5 g/ha, Table 3): 55%
visual injury Obs ([7]; 7.5 g/ha, Table 4): 73%
visual injury Obs ([7]; 10 g/ha, Table 2): 60%
visual injury Obs ([7]; 10 g/ha, Table 3): 70%
visual injury Obs ([7]; 10 g/ha, Table 4): 83%
visual injury ([8]; 7.5 g/ha): 78%
visual injury Obs ([8]; 7.5 g/ha, Table 2): 70%
visual injury Obs ([8]; 7.5 g/ha, Table 3): 88%
visual injury Obs ([8]; 7.5 g/ha, Table 5): 68%
visual injury Obs ([8]; 7.5 g/ha, Table 6): 68%
visual injury Obs ([8]; 7.5 g/ha, Table 7): 60%
visual injury Obs ([8]; 7.5 g/ha, Table 8): 63%
visual injury ([8]; 10 g/ha): 93%
visual injury Obs ([8]; 10 g/ha, Table 2): 78%
visual injury Obs ([8]; 10 g/ha, Table 3): 96%
visual injury Obs ([8]; 10 g/ha, Table 5): 70%
visual injury Obs ([8]; 10 g/ha, Table 6): 70%
visual injury Obs ([8]; 10 g/ha, Table 7): 70%
visual injury Obs ([8]; 10 g/ha, Table 8): 60%
visual injury Obs ([8]; 15 g/ha, Table 8): 63%
visual injury ([9]; 7.5 g/ha): 88%
visual injury Obs ([9]; 7.5 g/ha, Table 2): 88%
visual injury Obs ([9]; 7.5 g/ha, Table 3): 85%
visual injury Obs ([9]; 7.5 g/ha, Table 7): 85%
visual injury ([9]; 10 g/ha): 90%
visual injury Obs ([9]; 10 g/ha, Table 2): 92%
visual injury Obs ([9]; 10 g/ha, Table 3): 90%
visual injury Obs ([9]; 10 g/ha, Table 7): 88%
visual injury Obs ([10]; 7.5 g/ha, Table 4): 10%
visual injury Obs ([10]; 7.5 g/ha, Table 5): 3%
visual injury Obs ([10]; 7.5 g/ha, Table 6): 3%
visual injury Obs ([10]; 10 g/ha, Table 4): 18%
visual injury Obs ([10]; 10 g/ha, Table 5): 3%
visual injury Obs ([10]; 10 g/ha, Table 6): 3%
visual injury ([11]; 7.5 g/ha): 35%
visual injury Obs ([11]; 7.5 g/ha, Table 7): 63%
visual injury Obs ([11]; 7.5 g/ha, Table 8): 60%
visual injury ([11]; 10 g/ha): 43%
visual injury Obs ([11]; 10 g/ha, Table 7): 68%
visual injury Obs ([11]; 10 g/ha, Table 8): 60%
visual injury Obs ([11]; 15 g/ha, Table 8): 75%
